Results on two compounds are retold here after patent US20040254243A1 (priority 2001, published 2004).

Read-outs that look alike come from different tables or passages of the source.

For series [1] the following is noted: cited from earlier work.
Series [2] is described as follows: pKa values from the literature.

On to `CC(C(=O)O)c1cccc(C(=O)c2ccccc2)c1` (stereo not shown) [ketoprofen, 2-(3-benzoylphenyl)propionic acid], for which the pKa in series [1] (acetonitrile/water (3/1)) is 5.02; in series [1] (methanol/water (3/1)), 5.94; in series [2] (acetonitrile/water (3/1) and methanol/water (3/1)) it was approximately 5.5.

For `N=C(N)NCCC[C@H](N)C(=O)O` [arginine], the “pK, mean value” in series [2] (mean of pK1 and pK2) is given as “about 5.6”.
